This test has as its target T1, His-tagged full-length RSK2 (RPS6KA3) (Homo sapiens, UniProt P51812).
T1 construct: His-tagged full-length RSK2 (RPS6KA3, Invitrogen PV3323); His; purchased Invitrogen PV3323
The experiment in a line: RSK2 Omnia Assay for compound IC50 determination. Format: biochemical. As to conditions: ATP 15 μM, n=2, read-out: Mean RSK2 Biochem IC50. Summed up:
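Continuous fluorescence assay (ex 360/em 485 nm) of SOX-peptide (Omnia ST Peptide 6, 5 μM) phosphorylation with ATP 15 μM (Km 16.3 μM). Enzyme was […], in pH 7.5 HEPES/MgCl2 buffer with 1% DMSO. IC50 came from 11-point threefold dilutions ([…]) by four-parameter fit of initial slopes, in duplicate; Ki by Cheng-Prusoff assuming competitive inhibition.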
T1 sequence (P51812 whole entry): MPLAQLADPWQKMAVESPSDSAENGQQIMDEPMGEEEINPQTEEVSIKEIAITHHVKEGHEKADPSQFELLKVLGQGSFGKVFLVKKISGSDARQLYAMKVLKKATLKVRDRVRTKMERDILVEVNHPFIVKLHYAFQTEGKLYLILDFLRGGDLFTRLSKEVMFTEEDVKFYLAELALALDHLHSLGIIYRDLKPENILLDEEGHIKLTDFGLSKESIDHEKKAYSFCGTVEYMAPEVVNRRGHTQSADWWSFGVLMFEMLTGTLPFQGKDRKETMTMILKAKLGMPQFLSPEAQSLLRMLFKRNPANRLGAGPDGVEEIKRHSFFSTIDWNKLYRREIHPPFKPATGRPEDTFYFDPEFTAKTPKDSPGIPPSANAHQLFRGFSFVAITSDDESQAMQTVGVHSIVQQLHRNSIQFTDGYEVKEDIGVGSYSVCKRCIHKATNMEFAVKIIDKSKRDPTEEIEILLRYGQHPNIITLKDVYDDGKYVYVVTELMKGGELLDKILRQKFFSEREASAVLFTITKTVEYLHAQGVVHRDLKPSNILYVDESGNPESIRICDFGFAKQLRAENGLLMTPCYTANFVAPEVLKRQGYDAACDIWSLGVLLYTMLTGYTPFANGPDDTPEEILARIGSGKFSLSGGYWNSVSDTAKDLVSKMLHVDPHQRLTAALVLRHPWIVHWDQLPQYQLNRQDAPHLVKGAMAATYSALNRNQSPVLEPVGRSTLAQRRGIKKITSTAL
`C[C@@H]1C(=O)N(c2cccc(C#N)c2)c2cnc(Nc3ccc4[nH]c(=O)oc4c3)nc2N1C1CCC(F)(F)CC1` [compound 266, 3-[(7R)-8-(4,4-difluorocyclohexyl)-7-methyl-6-oxo-2-[(2-oxo-2,3-dihydro-1,3-benzoxazol-6-yl)amino]-7,8-dihydropteridin-5(6H)-yl]benzonitrile]: the half-inhibitory concentration (IC50) was ≤ 100 nM.

As for `C[C@@H]1C(=O)N(c2cccc(C#N)c2)c2cnc(Nc3ccc4[nH]c(=O)sc4c3)nc2N1C1CCC(F)(F)CC1` [compound 267, 3-[(7R)-8-(4,4-difluorocyclohexyl)-7-methyl-6-oxo-2-[(2-oxo-2,3-dihydro-1,3-benzothiazol-6-yl)amino]-7,8-dihydropteridin-5(6H)-yl]benzonitrile], the IC50 was ≤ 100 nM.

`C[C@@H]1C(=O)N(c2cccc(C#N)c2)c2cnc(Nc3cc4cn[nH]c4cn3)nc2N1C1CCC(F)(F)CC1` [compound 268, 3-[(7R)-8-(4,4-difluorocyclohexyl)-7-methyl-6-oxo-2-(1H-pyrazolo[3,4-c]pyridin-5-ylamino)-7,8-dihydropteridin-5(6H)-yl]benzonitrile]: the IC50 is 100 to 1000 nM.

In the case of `C[C@@H]1C(=O)N(c2cccc(C#N)c2)c2cnc(Nc3ccc(C(=O)O)cc3)nc2N1C1CCC(F)(F)CC1` [compound 269, 4-{[(7R)-5-(3-cyanophenyl)-8-(4,4-difluorocyclohexyl)-7-methyl-6-oxo-5,6,7,8-tetrahydropteridin-2-yl]amino}benzoic acid], the IC50 is ≤ 100 nM.

Take `C[C@@H]1C(=O)N(c2cccc(C#N)c2)c2cnc(Nc3cnc4[nH]ncc4c3)nc2N1C1CCC(F)(F)CC1` [compound 270, 3-[(7R)-8-(4,4-difluorocyclohexyl)-7-methyl-6-oxo-2-(1H-pyrazolo[3,4-b]pyridin-5-ylamino)-7,8-dihydropteridin-5(6H)-yl]benzonitrile]: the IC50 was ≤ 100 nM.

Consider `C[C@@H]1C(=O)N(c2cccc(C#N)c2)c2cnc(Nc3ccc(C(=O)O)c(F)c3)nc2N1C1CCC(F)(F)CC1` [compound 271, 4-{[(7R)-5-(3-cyanophenyl)-8-(4,4-difluorocyclohexyl)-7-methyl-6-oxo-5,6,7,8-tetrahydropteridin-2-yl]amino}-2-fluorobenzoic acid], for which the IC50 was ≤ 100 nM.

With `C[C@@H]1C(=O)N(c2cccc(C#N)c2)c2cnc(Nc3ccc(C(N)=O)c(F)c3)nc2N1C1CCC(F)(F)CC1` [compound 272, 4-{[(7R)-5-(3-cyanophenyl)-8-(4,4-difluorocyclohexyl)-7-methyl-6-oxo-5,6,7,8-tetrahydropteridin-2-yl]amino}-2-fluorobenzamide], the IC50 is ≤ 100 nM.

As for `C[C@@H]1C(=O)N(c2cccc(C#N)c2)c2cnc(Nc3ccc(S(N)(=O)=O)cc3)nc2N1C1CCC(F)(F)CC1` [compound 273, 4-{[(7R)-5-(3-cyanophenyl)-8-(4,4-difluorocyclohexyl)-7-methyl-6-oxo-5,6,7,8-tetrahydropteridin-2-yl]amino}benzenesulfonamide], the IC50 is ≤ 100 nM.

With `C[C@@H]1C(=O)N(c2cccc(C#N)c2)c2cnc(Nc3ccc(C#N)cc3)nc2N1C1CCC(F)(F)CC1` [compound 274, 3-[(7R)-2-[(4-cyanophenyl)amino]-8-(4,4-difluorocyclohexyl)-7-methyl-6-oxo-7,8-dihydropteridin-5(6H)-yl]benzonitrile], the IC50 is 100 to 1000 nM.

With `C[C@@H]1C(=O)N(c2cccc(C#N)c2)c2cnc(Nc3ccc(N)c(C(F)(F)F)c3)nc2N1C1CCC(F)(F)CC1` [compound 275], the IC50 was > 1000 nM.

Regarding `C[C@@H]1C(=O)N(c2cccc(C#N)c2)c2cnc(Nc3cc(F)c(O)c(F)c3)nc2N1C1CCC(F)(F)CC1` [compound 276, 3-[(7R)-8-(4,4-difluorocyclohexyl)-2-[(3,5-difluoro-4-hydroxyphenyl)amino]-7-methyl-6-oxo-7,8-dihydropteridin-5(6H)-yl]benzonitrile], the IC50 was ≤ 100 nM.

With `C[C@@H]1C(=O)N(c2cccc(C#N)c2)c2cnc(Nc3cc(F)c4[nH]c(=O)oc4c3)nc2N1C1CCC(F)(F)CC1` [compound 277, 3-[(7R)-8-(4,4-difluorocyclohexyl)-2-[(4-fluoro-2-oxo-2,3-dihydro-1,3-benzoxazol-6-yl)amino]-7-methyl-6-oxo-7,8-dihydropteridin-5(6H)-yl]benzonitrile], the IC50 is ≤ 100 nM.

In the case of `CC(C)Oc1ccc(N2C(=O)[C@@H](C)N(C3CCC(F)(F)CC3)c3nc(Nc4cc(F)c5[nH]c(=O)oc5c4)ncc32)cc1C#N` [compound 278, 5-[(7R)-8-(4,4-difluorocyclohexyl)-2-[(4-fluoro-2-oxo-2,3-dihydro-1,3-benzoxazol-6-yl)amino]-7-methyl-6-oxo-7,8-dihydropteridin-5(6H)-yl]-2-(propan-2-yloxy)benzonitrile], the IC50 was ≤ 100 nM.

As to `COc1ccc(N2C(=O)[C@@H](C)N(C3CCC(F)(F)CC3)c3nc(Nc4cnc5[nH]ncc5c4)ncc32)cc1C#N` [compound 279, 5-[(7R)-8-(4,4-difluorocyclohexyl)-7-methyl-6-oxo-2-(1H-pyrazolo[3,4-b]pyridin-5-ylamino)-7,8-dihydropteridin-5(6H)-yl]-2-methoxybenzonitrile], the IC50 was ≤ 100 nM.

For the compound `CCOc1ccc(N2C(=O)[C@@H](C)N(C3CCC(F)(F)CC3)c3nc(Nc4cc(F)c5[nH]c(=O)oc5c4)ncc32)cc1C#N` [compound 280, 5-[(7R)-8-(4,4-difluorocyclohexyl)-2-[(4-fluoro-2-oxo-2,3-dihydro-1,3-benzoxazol-6-yl)amino]-7-methyl-6-oxo-7,8-dihydropteridin-5(6H)-yl]-2-ethoxybenzonitrile], the IC50 was ≤ 100 nM.

As to `COc1ccc(N2C(=O)[C@@H](C)N(C3CCC(F)(F)CC3)c3nc(Nc4cc(F)c5[nH]c(=O)oc5c4)ncc32)cc1C#N` [compound 281, 5-[(7R)-8-(4,4-difluorocyclohexyl)-2-[(4-fluoro-2-oxo-2,3-dihydro-1,3-benzoxazol-6-yl)amino]-7-methyl-6-oxo-7,8-dihydropteridin-5(6H)-yl]-2-methoxybenzonitrile], the IC50 was ≤ 100 nM.

As for `CCOc1ccc(N2C(=O)[C@@H](C)N(C3CCC(F)(F)CC3)c3nc(Nc4cnc5[nH]ncc5c4)ncc32)cc1C#N` [compound 282, 5-[(7R)-8-(4,4-difluorocyclohexyl)-7-methyl-6-oxo-2-(1H-pyrazolo[3,4-b]pyridin-5-ylamino)-7,8-dihydropteridin-5(6H)-yl]-2-ethoxybenzonitrile], the IC50 is ≤ 100 nM.

Regarding `COc1ccc(N2C(=O)[C@@H](C)N(C3CCC(F)(F)CC3)c3nc(Nc4ccc5[nH]c(=O)oc5c4)ncc32)cc1C#N` [compound 283, 5-[(7R)-8-(4,4-difluorocyclohexyl)-7-methyl-6-oxo-2-[(2-oxo-2,3-dihydro-1,3-benzoxazol-6-yl)amino]-7,8-dihydropteridin-5(6H)-yl]-2-methoxybenzonitrile], the IC50 was 100 to 1000 nM.

For the compound `CCOc1ccc(N2C(=O)[C@@H](C)N(C3CCC(F)(F)CC3)c3nc(Nc4ccc5[nH]c(=O)oc5c4)ncc32)cc1C#N` [compound 284, 5-[(7R)-8-(4,4-difluorocyclohexyl)-7-methyl-6-oxo-2-[(2-oxo-2,3-dihydro-1,3-benzoxazol-6-yl)amino]-7,8-dihydropteridin-5(6H)-yl]-2-ethoxybenzonitrile], the IC50 lay in the range of 100 to 1000 nM.

In the case of `CC(C)Oc1ccc(N2C(=O)[C@@H](C)N(C3CCC(F)(F)CC3)c3nc(Nc4ccc5[nH]c(=O)oc5c4)ncc32)cc1C#N` [compound 285, 5-[(7R)-8-(4,4-difluorocyclohexyl)-7-methyl-6-oxo-2-[(2-oxo-2,3-dihydro-1,3-benzoxazol-6-yl)amino]-7,8-dihydropteridin-5(6H)-yl]-2-(propan-2-yloxy)benzonitrile], the IC50 is ≤ 100 nM.

`CC(C)Oc1ccc(N2C(=O)[C@@H](C)N(C3CCC(F)(F)CC3)c3nc(Nc4cnc5[nH]ncc5c4)ncc32)cc1C#N` [compound 286, 5-[(7R)-8-(4,4-difluorocyclohexyl)-7-methyl-6-oxo-2-(1H-pyrazolo[3,4-b]pyridin-5-ylamino)-7,8-dihydropteridin-5(6H)-yl]-2-(propan-2-yloxy)benzonitrile]: the IC50 lay within 100 to 1000 nM.

In the case of `CC[C@@H]1C(=O)N(c2cccc(C#N)c2)c2cnc(Nc3cc(F)c4[nH]ncc4c3)nc2N1C1CCCCC1` [compound 287, 3-[(7R)-8-cyclohexyl-7-ethyl-2-[(7-fluoro-1H-indazol-5-yl)amino]-6-oxo-7,8-dihydropteridin-5(6H)-yl]benzonitrile], the IC50 is ≤ 100 nM.

For the compound `CC[C@@H]1C(=O)N(c2cccnc2)c2cnc(Nc3cc(F)c4[nH]ncc4c3)nc2N1C1CCCCC1` [compound 288, (7R)-8-cyclohexyl-7-ethyl-2-[(7-fluoro-1H-indazol-5-yl)amino]-5-(pyridin-3-yl)-7,8-dihydropteridin-6(5H)-one], the IC50 was ≤ 100 nM.

As to `CC[C@@H]1C(=O)N(c2ccc(OC)c(OC)c2)c2cnc(Nc3cc(F)c4[nH]ncc4c3)nc2N1C1CCCCC1` [compound 289, (7R)-8-cyclohexyl-5-(3,4-dimethoxyphenyl)-7-ethyl-2-[(7-fluoro-1H-indazol-5-yl)amino]-7,8-dihydropteridin-6(5H)-one], the IC50 was ≤ 100 nM.

For `CC[C@@H]1C(=O)N(c2cccc(F)c2)c2cnc(Nc3cc(F)c4[nH]ncc4c3)nc2N1C1CCCCC1` [compound 290, (7R)-8-cyclohexyl-7-ethyl-2-[(7-fluoro-1H-indazol-5-yl)amino]-5-(3-fluorophenyl)-7,8-dihydropteridin-6(5H)-one], the IC50 was ≤ 100 nM.

Consider `CC[C@@H]1C(=O)N(c2cccc(C(F)(F)F)c2)c2cnc(Nc3cc(F)c4[nH]ncc4c3)nc2N1C1CCCCC1` [compound 291, (7R)-8-cyclohexyl-7-ethyl-2-[(7-fluoro-1H-indazol-5-yl)amino]-5-[3-(trifluoromethyl)phenyl]-7,8-dihydropteridin-6(5H)-one], for which the IC50 was ≤ 100 nM.

These data come from patent publication US9351974B2, “Substituted pteridinones for the treatment of cancer” (OSI Pharmaceuticals, LLC, priority 2011, dated 2016).
